From patent US20080045582A1, “ENA-78 Gene Polymorphisms and Protein Concentrations as Diagnostic and Prognostic Tools” (priority 2006, published 2008)

Tests used:
CXCL5 = CXCL5 gene expression in HUVECs, real-time RT-PCR normalized to GAPDH; assay type: cell-based, human
Method: Human umbilical vein endothelial cells (HUVECs) (Clonetics Cell Systems; Cambrex Bio Science Walkersville, Inc., Walkersville, USA) were cultured as previously described. Briefly, HUVECs between passes three and four were seeded at a density of 2.5×10^4 cells per cm^2 and cultured to 80% confluence with endothelial cell growth-supplemented medium (EGM-2-endothelial cell medium-2; Cambrex Bio Science Walkersville, Inc.). Once confluent, media was changed to serum free endothelial basal media (EBM-2-endothelial cell medium-2; Cambrex Bio Science Walkersville, Inc.) for 24 hours prior to treatment, in which EBM-2 media supplemented to a 2% FBS concentration was used. Treatments consisted of atorvastatin calcium (AT; LKT Laboratories Inc., St. […] All were dissolved in molecular grade water. All final DMSO concentrations were less then 0.1%. […] In experiments investigating the impact of AT on IL-1beta-stimulated ENA-78 production, HUVECs were pre-treated with AT followed by IL-1beta stimulation two hours later. […] In a separate set of experiments, cells were cultured with IL-1beta and AT in the presence or absence of mevalonate, FPP, and GGPP to determine whether AT inhibition of ENA-78 production was dependent on HMG-CoA reductase inhibition and subsequent downstream pathways. Cell culture supernates for all experiments were stored at -20° C. until analysis, which was performed within seven days. ENA-78 concentrations were measured and normalized to total protein content in cell culture supernates using cytometric immunofluorescence as previously described. Ribonucleic acid (RNA) was isolated using a commercial kit (RNeasy mini kit, Qiagen Inc., Valencia, USA). […] RNA quality was assessed by absorbance (Nanodrop, Nanodrop Technologies, Wilmington, USA). […] Statistical differences in normalized protein concentrations and gene expression levels were determined by one way ANOVA and post-hoc Tukey analysis. […]

IL-6 = IL-6 production by non-stimulated human umbilical vein endothelial cells, multiplex protein measurement; assay type: cell-based; conditions: increasing concentration of atorvastatin (1-50 μM), 24 hours, FIG. 11A
Method: (§1) Human umbilical vein endothelial cells were obtained (Clonetics Cell Systems; Cambrex Bio Science Walkersville, Inc., Walkersville, Md.). Approximately 5×10^5 viable cells were seeded in endothelial cell growth-supplemented basal medium (EGM-2-endothelial cell medium-2; Cambrex Bio Science Walkersville, Inc.) and maintained at 37° C. under a 5% carbon dioxide atmosphere per manufacturer's protocol. The culture medium was changed 24 hours after seeding and every 48 hours thereafter until confluence. Cells were then treated with trypsin, seeded in a 48-well culture dish, and incubated under the conditions previously described. Cells used in this Example were from the third passage. […]
(§2) The culture-conditioned media protein content of epithelial neutrophil-activating peptide-78 (ENA-78), interleukin-8, (IL-8), monocyte chemotactic protein-1 (MCP-1), interleukin-6 (IL-6), interleukin-10 (IL-10), fibroblast growth factor (FGF), and granulocyte colony-stimulating factor (G-CSF) were measured by means of flow-based immunofluorescence multiplex detection (Fluorokine MAP Human Cytokine Panel; R&D Systems Inc., Minneapolis, Minn.) with the Luminex 100 IS platform (Luminex Corp., Austin, Tex.). […]

HUVECs = test: HUVEC viability, trypan blue cell staining; assay type: cell-based, human; conditions: 24 hours of treatment, any dose of AT from 1 uM to 50 uM, FIG. 13
Method: Human umbilical vein endothelial cells (HUVECs) (Clonetics Cell Systems; Cambrex Bio Science Walkersville, Inc., Walkersville, USA) were cultured as previously described. Briefly, HUVECs between passes three and four were seeded at a density of 2.5×10^4 cells per cm^2 and cultured to 80% confluence with endothelial cell growth-supplemented medium (EGM-2-endothelial cell medium-2; Cambrex Bio Science Walkersville, Inc.). Once confluent, media was changed to serum free endothelial basal media (EBM-2-endothelial cell medium-2; Cambrex Bio Science Walkersville, Inc.) for 24 hours prior to treatment, in which EBM-2 media supplemented to a 2% FBS concentration was used.
Treatments consisted of atorvastatin calcium (AT; LKT Laboratories Inc., St. Paul, USA) 1-50 μM dissolved in dimethyl sulfoxide (DMSO), IL-1beta, mevalonate, farnesyl pyrophosphate (FPP), and geranylgeranyl pyrophosphate (GGPP) were purchased from Sigma-Aldrich (St. Louis, Mo.), with concentrations of 2 ng/ml, 250 μM, 5 μM, and 5 μM used respectively. All were dissolved in molecular grade water. All final DMSO concentrations were less then 0.1%.
Cell viability was assessed by treating HUVECs with AT 1 μM, 5 μM, 10 μM, 25 μM, and 50 μM using trypan blue cell staining. […]

ENA-78 [1] = test: IL-1beta-stimulated ENA-78 production from HUVECs, cytometric immunofluorescence; assay type: cell-based, human; conditions: for ENA-78 production reduced by, compared with IL-1beta-stimulated cells in the absence of AT: AT pre-treatment 2 h before IL-1beta
Method: Human umbilical vein endothelial cells (HUVECs) (Clonetics Cell Systems; Cambrex Bio Science Walkersville, Inc., Walkersville, USA) were cultured as previously described. Briefly, HUVECs between passes three and four were seeded at a density of 2.5×10^4 cells per cm^2 and cultured to 80% confluence with endothelial cell growth-supplemented medium (EGM-2-endothelial cell medium-2; Cambrex Bio Science Walkersville, Inc.). Once confluent, media was changed to serum free endothelial basal media (EBM-2-endothelial cell medium-2; Cambrex Bio Science Walkersville, Inc.) for 24 hours prior to treatment, in which EBM-2 media supplemented to a 2% FBS concentration was used. Treatments consisted of atorvastatin calcium (AT; LKT Laboratories Inc., St. […] All were dissolved in molecular grade water. All final DMSO concentrations were less then 0.1%. […] In experiments investigating the impact of AT on IL-1beta-stimulated ENA-78 production, HUVECs were pre-treated with AT followed by IL-1beta stimulation two hours later. […] In a separate set of experiments, cells were cultured with IL-1beta and AT in the presence or absence of mevalonate, FPP, and GGPP to determine whether AT inhibition of ENA-78 production was dependent on HMG-CoA reductase inhibition and subsequent downstream pathways. Cell culture supernates for all experiments were stored at -20° C. until analysis, which was performed within seven days. ENA-78 concentrations were measured and normalized to total protein content in cell culture supernates using cytometric immunofluorescence as previously described. Ribonucleic acid (RNA) was isolated using a commercial kit (RNeasy mini kit, Qiagen Inc., Valencia, USA). Complementary deoxyribonucleic acid (cDNA) conversion was performed by high capacity cDNA reverse transcription (Applied Biosystems, Foster City, USA) per protocol using roughly 2 μg of total RNA. RNA quality was assessed by absorbance (Nanodrop, Nanodrop Technologies, Wilmington, USA). Real-time reverse-transcription PCR (RT-PCR) was done using primer and probe sets for CXCL5 normalized to a housekeeping gene, glyceraldehyde-3-phosphate dehydrogenase (GAPDH; Taqman Gene Expression Assays, Applied Biosystems Inc.). […] PCR for both CXCL5 and GAPDH was performed at the same time using the following conditions: 95° C. for 2 minutes; 35 cycles of 95° C. for 30 seconds, 59° C. for 30 seconds, and 72° C. for 30 seconds; followed by 7 minutes of elongation at 72° C. Statistical differences in normalized protein concentrations and gene expression levels were determined by one way ANOVA and post-hoc Tukey analysis. […] An independent t-test was used to compare treatment differences at the same time points in the dose range analysis. […] Statistical analyses were performed with SPSS software, version 11.5 (SPSS Inc., Chicago, USA).

ENA-78 [2] = test: ENA-78 production by non-stimulated human umbilical vein endothelial cells, multiplex protein measurement; assay type: cell-based; conditions: 24 hours
Method: (§3) Human umbilical vein endothelial cells were obtained (Clonetics Cell Systems; Cambrex Bio Science Walkersville, Inc., Walkersville, Md.). Approximately 5×10^5 viable cells were seeded in endothelial cell growth-supplemented basal medium (EGM-2-endothelial cell medium-2; Cambrex Bio Science Walkersville, Inc.) and maintained at 37° C. under a 5% carbon dioxide atmosphere per manufacturer's protocol. The culture medium was changed 24 hours after seeding and every 48 hours thereafter until confluence. Cells were then treated with trypsin, seeded in a 48-well culture dish, and incubated under the conditions previously described. Cells used in this Example were from the third passage.
(§4) After cells reached 70-80% confluence in the culture dish, they were allowed to become quiescent in unsupplemented, serum-free medium for 24 hours before treatment and then placed in medium containing 2% fetal bovine serum. Atorvastatin (LKT Laboratories Inc., St. Paul, Minn.) was dissolved in dimethylsulfoxide (Sigma-Aldrich, St. Louis, Mo.). Cells were treated for 24 hours with atorvastatin 1-50 μM alone or with atorvastatin plus mevalonate 250 μM (Sigma-Aldrich). Controls were cells cultured without atorvastatin or atorvastatinmevalonate. […] All experiments were performed in duplicate.
(§5) After treatment, culture-conditioned media were collected, divided into aliquots, and stored at −80° C. for no longer than 7 days until multiplex measurement of chemokines, cytokines, and angiogenic factors was performed.
(§6) The culture-conditioned media protein content of epithelial neutrophil-activating peptide-78 (ENA-78), interleukin-8, (IL-8), monocyte chemotactic protein-1 (MCP-1), interleukin-6 (IL-6), interleukin-10 (IL-10), fibroblast growth factor (FGF), and granulocyte colony-stimulating factor (G-CSF) were measured by means of flow-based immunofluorescence multiplex detection (Fluorokine MAP Human Cytokine Panel; R&D Systems Inc., Minneapolis, Minn.) with the Luminex 100 IS platform (Luminex Corp., Austin, Tex.). Concentrations for each sample were normalized against milligrams of total protein by using a standard bicinchoninic acid protein assay (Pierce Biotechnology, Inc., Rockford, Ill.). Samples were assayed in duplicate.
(§7) Standard curves of best fit for each analyte were generated by plotting the median fluorescence intensities of the analyte standards against their known concentrations by using Beadview multiplex data analysis software version 1 (Upstate, Charlottesville, Va.).
(§8) Differences in biomolecular concentrations were compared by treatment group by applying one-way analysis of variance and a post-hoc Tukey's test as appropriate. The Jonckheere Terpstra test was performed to assess the trend for differences in biomolecular concentrations across concentrations of atorvastatin. […]

IL-8 = IL-8 production by non-stimulated human umbilical vein endothelial cells, multiplex protein measurement; assay type: cell-based
Method: as §3, §4, §5, §6, §7
Differences in biomolecular concentrations were compared by treatment group by applying one-way analysis of variance and a post-hoc Tukey's test as appropriate. The Jonckheere Terpstra test was performed to assess the trend for differences in biomolecular concentrations across concentrations of atorvastatin. A p value below 0.05 was considered to indicate a statistically significant difference. Statistical analyses were performed with SPSS software, version 11.5 (SPSS Inc., Chicago, Ill.).

MCP-1 = MCP-1 production by non-stimulated human umbilical vein endothelial cells, multiplex protein measurement; assay type: cell-based
Method: as §3, §4, §5, §6, §7, §8

G-CSF = G-CSF production by non-stimulated human umbilical vein endothelial cells, multiplex protein measurement; assay type: cell-based; conditions: atorvastatin 1-50 μM, 24 hours, FIG. 12
Method: as §1, §2

FGF = FGF production by non-stimulated human umbilical vein endothelial cells, multiplex protein measurement; assay type: cell-based; conditions: atorvastatin 1-50 μM, 24 hours, FIG. 12
Method: as §1, §2

IL-10 = IL-10 production by non-stimulated human umbilical vein endothelial cells, multiplex protein measurement; assay type: cell-based; conditions: atorvastatin 1-50 μM, 24 hours, FIG. 11B
Method: as §1, §2

CC(C)c1c(C(=O)Nc2ccccc2)c(-c2ccccc2)c(-c2ccc(F)cc2)n1CC[C@@H](O)C[C@@H](O)CC(=O)O [atorvastatin]
constitutive expression of CXCL5 (CXCL5; AT alone, 24 hours, FIG. 17): significantly lowered
CXCL5 expression compared to IL-1beta alone (CXCL5; pre-treated with 10 μM of AT followed by IL-1beta in two hours): no difference
graded reduction of IL-6 production (IL-6): 29-83%
HUVEC viability compared with control (HUVECs): no significant differences
ENA-78 production reduced by, compared with IL-1beta-stimulated cells in the absence of AT (ENA-78 [1]; 1st of the five AT dose groups (1, 5, 10, 25, 50 μM)): 38%
ENA-78 production reduced by, compared with IL-1beta-stimulated cells in the absence of AT (ENA-78 [1]; 2nd of the five AT dose groups (1, 5, 10, 25, 50 μM)): 70%
ENA-78 production reduced by, compared with IL-1beta-stimulated cells in the absence of AT (ENA-78 [1]; 3rd of the five AT dose groups (1, 5, 10, 25, 50 μM)): 78%
ENA-78 production reduced by, compared with IL-1beta-stimulated cells in the absence of AT (ENA-78 [1]; 4th of the five AT dose groups (1, 5, 10, 25, 50 μM)): 93%
ENA-78 production reduced by, compared with IL-1beta-stimulated cells in the absence of AT (ENA-78 [1]; 5th of the five AT dose groups (1, 5, 10, 25, 50 μM)): 99%
IL-1beta-stimulated ENA-78 production (ENA-78 [1]; AT at concentrations ≧25 uM): returned to baseline
IL-1beta-stimulated ENA-78 production (ENA-78 [1]; IL-1beta and AT 10 uM, FIG. 16): 1054 ± 349 pg/mg
time at which AT attenuation of ENA-78 production relative to IL-1beta was most pronounced (ENA-78 [1]; time course 0, 4, 12, 24, 48 hours, FIG. 15): 48 h
reduction in ENA-78 production compared with untreated controls (ENA-78 [2]; escalating concentrations of atorvastatin (10 μM to 50 μM), FIG. 10A): 45-85%
ENA-78 production vs untreated control (ENA-78 [2]; lower concentrations of atorvastatin): not significantly altered
IL-8 concentrations lowered by (IL-8; 1st of the four atorvastatin groups (1-50 μM), 24 hours): 26%
IL-8 concentrations lowered by (IL-8; 2nd of the four atorvastatin groups (1-50 μM), 24 hours): 72%
IL-8 concentrations lowered by (IL-8; 3rd of the four atorvastatin groups (1-50 μM), 24 hours): 83%
IL-8 concentrations lowered by (IL-8; 4th of the four atorvastatin groups (1-50 μM), 24 hours): 89%
minimum effective concentration giving significant reduction in IL-8 compared with control (IL-8; 24 hours, FIG. 10B): 5 µM
IL-8 production (IL-8; atorvastatin 5 μM, 24 hours (control 551±69)): 155±45 pg/mg protein
MCP-1 concentrations vs control condition (MCP-1; concentrations of atorvastatin less than 50 μM): did not significantly differ
reduction in MCP-1 (MCP-1; highest concentration of atorvastatin (50 μM), 24 hours): 83%
MCP-1 production (MCP-1; highest concentration of atorvastatin (50 μM), 24 hours (control 4556±514)): 782±105 pg/mg protein
concentrations of G-CSF (G-CSF): did not change
concentrations of FGF (FGF): did not change
treatment effect on IL-10 (IL-10): no treatment effect

geranylgeranyl pyrophosphate [GGPP]
effect of co-treatment on the effect of AT on IL-1beta-stimulated ENA-78 production (ENA-78 [1]; IL-1beta and AT 10 uM, mevalonate 250 μM, FPP 5 μM, GGPP 5 μM, FIG. 16): partially reversed
